Measured values: patent US9029559B2, “Substituted 3-heteroaroylamino-propionic acid derivatives and their use as pharmaceuticals” (SANOFI, priority 2011, dated 2015)

These compounds were tested against Recombinant human cathepsin A (Homo sapiens (Human), UniProt P10619) (assay: Cathepsin A inhibitory activity (cleavage of Bodipy FL-labeled bradykinin, microfluidic capillary electrophoresis)). Settings: read-out: Activity (IC50, cathepsin A inhibitory activity).
Format: biochemical

Chain of Recombinant human cathepsin A (P10619 29-326): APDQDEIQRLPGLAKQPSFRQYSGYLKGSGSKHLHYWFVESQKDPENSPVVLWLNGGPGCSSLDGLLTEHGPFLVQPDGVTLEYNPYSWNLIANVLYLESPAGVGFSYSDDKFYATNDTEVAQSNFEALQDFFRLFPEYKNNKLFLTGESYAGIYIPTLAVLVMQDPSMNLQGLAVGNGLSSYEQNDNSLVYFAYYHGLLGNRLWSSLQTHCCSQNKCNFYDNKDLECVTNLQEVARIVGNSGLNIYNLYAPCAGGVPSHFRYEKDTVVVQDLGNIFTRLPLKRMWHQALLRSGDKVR
Chain of Recombinant human cathepsin A (P10619 327-480): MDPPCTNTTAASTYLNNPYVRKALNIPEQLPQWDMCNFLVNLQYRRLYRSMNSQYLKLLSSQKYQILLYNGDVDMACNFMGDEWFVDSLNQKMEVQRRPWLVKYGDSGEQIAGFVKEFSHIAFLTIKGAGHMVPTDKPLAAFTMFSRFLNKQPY

IC50 [µM] | Compound
8.04 | Cc1ccccc1[C@H](CC(=O)O)NC(=O)c1cncc(-c2ccc3c(c2)OCO3)c1 [compound 76]
5.01 | Cc1ccccc1[C@H](CC(=O)O)NC(=O)c1cncc(-c2cccc(F)c2F)c1 [compound 79]
3.08 | Cc1cc(F)ccc1-c1cncc(C(=O)N[C@@H](CC(=O)O)c2ccccc2C)c1 [compound 82]
7.83 | COc1cc(F)ccc1-c1cncc(C(=O)N[C@@H](CC(=O)O)c2ccccc2C)c1 [compound 85]
8.51 | COc1ccc(F)c(-c2cncc(C(=O)N[C@@H](CC(=O)O)c3ccccc3C)c2)c1 [compound 88]
2.71 | Cc1ccccc1[C@H](CC(=O)O)NC(=O)c1ccnc(-c2ccccc2F)c1 [compound 97]

The remaining lines, values behind:

Compound | IC50 [µM]
Cc1ccccc1[C@H](CC(=O)O)NC(=O)c1ccccn1 [compound 5] | 3.98
Cc1ccccc1[C@H](CC(=O)O)NC(=O)c1cccnc1 [compound 8] | 10.4
COc1cccnc1C(=O)N[C@@H](CC(=O)O)c1ccccc1C [compound 9] | 7.25
Cc1cccc(C(=O)N[C@@H](CC(=O)O)c2ccccc2C)n1 [compound 10] | 1.24
CNc1cncc(C(=O)N[C@@H](CC(=O)O)c2ccccc2C)n1 [compound 12] | 7.32
Cc1ccccc1[C@H](CC(=O)O)NC(=O)c1cc(N(C)C)nc(N(C)C)n1 [compound 13] | 10.1
Cc1ccnc(C(=O)N[C@@H](CC(=O)O)c2ccccc2C)c1 [compound 14] | 4.35
Cc1ccccc1[C@H](CC(=O)O)NC(=O)c1cncc(-c2ccccc2)c1 [compound 15] | 2.16
COc1cc(C(=O)N[C@@H](CC(=O)O)c2ccccc2C)nc(OC)n1 [compound 16, (S)-3-[(2,6-Dimethoxy-pyrimidine-4-carbonyl)-amino]-3-o-tolyl-propionic acid] | 1.05
Cc1ccccc1[C@H](CC(=O)O)NC(=O)c1ccc2cnccc2n1 [compound 17] | 3.09
CCc1ccnc(C(=O)N[C@@H](CC(=O)O)c2ccccc2C)c1 [compound 18] | 3.06
COc1cc(OC)nc(C(=O)N[C@@H](CC(=O)O)c2ccccc2C)n1 [compound 30] | 4.21
COc1cccc(C(=O)N[C@@H](CC(=O)O)c2ccccc2C)n1 [compound 31] | 4.77
Cc1ccccc1[C@H](CC(=O)O)NC(=O)c1ncccc1F [compound 33] | 3.42
Cc1ccccc1[C@H](CC(=O)O)NC(=O)c1ccc2nc[nH]c2n1 [compound 34] | 5.07
Cc1ccccc1[C@H](CC(=O)O)NC(=O)c1cc(-c2ccccc2)ccn1 [compound 39] | 1.08
COc1cccc(-c2cccc(C(=O)N[C@@H](CC(=O)O)c3ccccc3C)n2)c1 [compound 43] | 2.27

Compound | IC50 [µM]
COc1ccccc1-c1cccc(C(=O)N[C@@H](CC(=O)O)c2ccccc2C)n1 [compound 44] | 1.19
COc1ccc(-c2cccc(C(=O)N[C@@H](CC(=O)O)c3ccccc3C)n2)cc1 [compound 45] | 3.09
Cc1ccccc1[C@H](CC(=O)O)NC(=O)c1ccc(Oc2ccccc2)nc1 [compound 46] | 9.94
Cc1ccccc1[C@H](CC(=O)O)NC(=O)c1cccc(F)n1 [compound 48] | 1.67
Cc1ccccc1[C@H](CC(=O)O)NC(=O)c1cc(N2CCOCC2)ccn1 [compound 50] | 7.73
Cc1cc(C)nc(C(=O)N[C@@H](CC(=O)O)c2ccccc2C)c1 [compound 51] | 1.81
Cc1ccccc1[C@H](CC(=O)O)NC(=O)c1cc(CC(C)C)nc(N)n1 [compound 52] | 3.68
Cc1ccccc1[C@H](CC(=O)O)NC(=O)c1nc(F)ccc1F [compound 53] | 2.83
Cc1ccccc1[C@H](CC(=O)O)NC(=O)c1cccc(N2CCCCC2)n1 [compound 54] | 8.93
Cc1cc(C(=O)N[C@@H](CC(=O)O)c2ccccc2C)nc(C)n1 [compound 55] | 5.26
Cc1ccccc1[C@H](CC(=O)O)NC(=O)c1cccc(-n2ccnc2)n1 [compound 56] | 11.1
COc1ccc(-c2cncc(C(=O)N[C@@H](CC(=O)O)c3ccccc3C)c2)cc1 [compound 57] | 11.5
Cc1ccccc1[C@H](CC(=O)O)NC(=O)c1cncc(-c2ccc(Cl)cc2Cl)c1 [compound 61] | 5.14
Cc1ccccc1[C@H](CC(=O)O)NC(=O)c1cncc(-c2ccccc2C(F)(F)F)c1 [compound 66] | 4.29
COc1ccccc1-c1cncc(C(=O)N[C@@H](CC(=O)O)c2ccccc2C)c1 [compound 67] | 4.97
Cc1ccccc1[C@H](CC(=O)O)NC(=O)c1cncc(-c2ccccc2F)c1 [compound 69] | 1.4
Cc1ccccc1[C@H](CC(=O)O)NC(=O)c1cncc(-c2ccc(F)cc2F)c1 [compound 73] | 3.25

Same assay, conditions: read-out: Activity [μM] (IC50, cathepsin A inhibitory activity)

IC50 [µM] | Compound
1.01 | Cc1ccccc1[C@H](CC(=O)O)NC(=O)c1cncc(-c2cccc(C)c2C)c1 [compound 116, (S)-3-{[5-(2,3-Dimethyl-phenyl)-pyridine-3-carbonyl]-amino}-3-o-tolyl-propionic acid]
5.27 | Cc1ccc(-c2cncc(C(=O)N[C@@H](CC(=O)O)c3ccccc3C)c2)c(C)c1 [compound 117]
3.7 | Cc1ccccc1[C@H](CC(=O)O)NC(=O)c1ccnc(-c2cccc(Cl)c2Cl)c1 [compound 123]
5.76 | Cc1ccccc1[C@H](CC(=O)O)NC(=O)c1cccc(-c2cccc(C(F)(F)F)c2)n1 [compound 133]
3.62 | Cc1ccccc1[C@H](CC(=O)O)NC(=O)c1cccc(-c2ccc(F)c(Cl)c2)n1 [compound 134]
1.18 | Cc1ccccc1[C@H](CC(=O)O)NC(=O)c1cccc(-c2ccc(F)cc2)n1 [compound 135]
4.85 | Cc1ccccc1[C@H](CC(=O)O)NC(=O)c1cccc(-c2ccc(Cl)cc2)n1 [compound 136]
1.24 | Cc1ccc(-c2cccc(C(=O)N[C@@H](CC(=O)O)c3ccccc3C)n2)cc1 [compound 137]
6.83 | Cc1ccccc1[C@H](CC(=O)O)NC(=O)c1cccc(-c2ccc(C(F)(F)F)cc2)n1 [compound 138]
1.09 | Cc1ccccc1[C@H](CC(=O)O)NC(=O)c1cccc(-c2ccccc2C(F)(F)F)n1 [compound 139]
1.57 | Cc1ccccc1[C@H](CC(=O)O)NC(=O)c1cccc(-c2cccc(Cl)c2)n1 [compound 140]
7.46 | Cc1ccccc1[C@H](CC(=O)O)NC(=O)c1cccc(-c2cccc(C#N)c2)n1 [compound 145]
2.16 | Cc1ccccc1[C@H](CC(=O)O)NC(=O)c1cccc(-c2ccc(C#N)cc2)n1 [compound 146]
3.16 | Cc1ccccc1[C@H](CC(=O)O)NC(=O)c1cccc(-c2cccc(-c3ccccc3)c2)n1 [compound 147]
4.4 | Cc1ccccc1[C@H](CC(=O)O)NC(=O)c1cccc(-c2ccc(F)cc2F)n1 [compound 149]
1.02 | Cc1ccccc1[C@H](CC(=O)O)NC(=O)c1cccc(-c2cc(F)cc(F)c2)n1 [compound 150]
1.18 | Cc1ccccc1[C@H](CC(=O)O)NC(=O)c1cccc(-c2ccc(F)c(F)c2)n1 [compound 151]
1.55 | Cc1ccccc1[C@H](CC(=O)O)NC(=O)c1cccc(-c2ccc3c(c2)OCO3)n1 [compound 152]
1.19 | Cc1ccc(-c2cccc(C(=O)N[C@@H](CC(=O)O)c3ccccc3C)n2)cc1C [compound 153]

IC50 [µM] | Compound
2.46 | Cc1ccccc1[C@H](CC(=O)O)NC(=O)c1cccc(-c2ccccc2C#N)n1 [compound 157]
14.4 | Cc1ccccc1[C@H](CC(=O)O)NC(=O)c1cccc(-c2c(C)noc2C)n1 [compound 159]
1.43 | Cc1ccc(-c2cccc(C(=O)N[C@@H](CC(=O)O)c3ccccc3C)n2)c(C)c1 [compound 162]
6.98 | Cc1ccccc1[C@H](CC(=O)O)NC(=O)c1cccc(-c2cccc(OCC3CC3)c2)n1 [compound 171]
3.21 | Cc1ccccc1[C@H](CC(=O)O)NC(=O)c1cccc(-c2cccc(F)c2C)n1 [compound 172]
1.59 | Cc1ccccc1[C@H](CC(=O)O)NC(=O)c1cccc(-c2ccc(C(=O)N(C)C)c(Cl)c2)n1 [compound 174]
2.36 | Cc1cc(F)c(-c2cccc(C(=O)N[C@@H](CC(=O)O)c3ccccc3C)n2)cc1Cl [compound 175]
3.32 | Cc1ccccc1[C@H](CC(=O)O)NC(=O)c1cccc(-c2cccc(C(C)(C)O)c2)n1 [compound 176, (S)-3-({6-[3-(1-Hydroxy-1-methyl-ethyl)-phenyl]-pyridine-2-carbonyl}-amino)-3-o-tolyl-propionic acid]
5 | COc1ccc(C(=O)N[C@@H](CC(=O)O)c2ccc(C)cc2)nc1-c1cccc(C(F)(F)F)c1 [compound 181]
1.01 | COc1ccc(C(=O)N[C@@H](CC(=O)O)c2ccc(C)cc2)nc1-c1ccc(Cl)cc1Cl [compound 183]
1.29 | COc1ccc(C(=O)N[C@@H](CC(=O)O)c2ccc(C)cc2)nc1-c1ccc(F)cc1 [compound 185]
3.56 | COc1ccc(C(=O)N[C@@H](CC(=O)O)c2ccc(C)cc2)nc1-c1ccc(Cl)cc1 [compound 186, (S)-3-{[6-(4-Chloro-phenyl)-5-methoxy-pyridine-2-carbonyl]-amino}-3-p-tolyl-propionic acid]
4.85 | COc1ccc(-c2nc(C(=O)N[C@@H](CC(=O)O)c3ccc(C)cc3)ccc2OC)cc1 [compound 187]
4.45 | COc1ccc(C(=O)N[C@@H](CC(=O)O)c2ccc(C)cc2)nc1-c1ccc(C)cc1 [compound 188]
4.57 | COc1cccc(-c2nc(C(=O)N[C@@H](CC(=O)O)c3ccc(C)cc3)ccc2OC)c1 [compound 191]
2.74 | COc1ccc(C(=O)N[C@@H](CC(=O)O)c2ccc(C)cc2)nc1-c1cccc(Cl)c1 [compound 193]
8.83 | COc1ccc(C(=O)N[C@@H](CC(=O)O)c2ccc(C)cc2)nc1-c1ccc2ccccc2c1 [compound 195]
1.71 | COc1ccc(C(=O)N[C@@H](CC(=O)O)c2ccc(C)cc2)nc1-c1cccc(C)c1 [compound 197]
8.35 | COc1ccc(C(=O)N[C@@H](CC(=O)O)c2ccc(C)cc2)nc1-c1cccc(C(C)=O)c1 [compound 203]
